Data reported in the NIST ThermoML archive (doi:10.1016/j.jct.2004.11.023).

Assay: xn = mol fraction of the nth substance listed
Conditions: 101 kPa, Liquid, Vibrating tube method

CC(=O)c1ccccc1 [acetophenone] + Cc1ccccc1
mass density [kg/m3]
Conditions | 298.15 K | 328.15 K
x2 = 0 | 1023.12 | 997.01
x2 = 0.1016 | 1008.8 | 982.57
x2 = 0.1982 | 994.83 | 968.48
x2 = 0.257 | 986.17 | 959.73
x2 = 0.3576 | 971 | 944.41
x2 = 0.453 | 956.2 | 929.46
x2 = 0.5369 | 942.81 | 915.9
x2 = 0.6366 | 926.48 | 899.39
x2 = 0.7154 | 913.19 | 885.89
x2 = 0.8198 | 895.09 | 867.55
x2 = 0.9019 | 880.36 | 852.62

Cc1cccc(C)c1 [1,3-dimethylbenzene] + CC(=O)c1ccccc1
x1 = 1
Conditions | mass density [kg/m3]
298.15 K | 859.88
328.15 K | 834.12

CC(=O)c1ccccc1 [acetophenone] + c1ccccc1
mass density [kg/m3]
Conditions | 298.15 K | 328.15 K
x2 = 0 | 1023.11 | 997
x2 = 0.1057 | 1011.02 | 984.62
x2 = 0.186 | 1001.34 | 974.7
x2 = 0.2855 | 988.94 | 961.91
x2 = 0.3792 | 976.58 | 949.15
x2 = 0.4626 | 964.98 | 937.16
x2 = 0.5484 | 952.49 | 924.19
x2 = 0.6248 | 940.71 | 911.99
x2 = 0.7289 | 923.84 | 894.3
x2 = 0.8003 | 911.56 | 881.44
x2 = 0.8953 | 894.23 | 863.18

CC(=O)c1ccccc1 [acetophenone] + Cc1cccc(C)c1
mass density [kg/m3]
Conditions | 298.15 K | 328.15 K
x2 = 0 | 1023.12 | 996.98
x2 = 0.09263 | 1007.97 | 981.88
x2 = 0.1807 | 993.62 | 967.52
x2 = 0.2662 | 979.65 | 953.61
x2 = 0.3566 | 964.94 | 938.89
x2 = 0.4525 | 949.31 | 923.26
x2 = 0.538 | 935.34 | 909.32
x2 = 0.6252 | 921.13 | 895.13
x2 = 0.7339 | 903.38 | 877.43
x2 = 0.8479 | 884.76 | 858.85
x2 = 0.8943 | 877.15 | 851.29

CC(=O)c1ccccc1 [acetophenone] + Cc1cc(C)cc(C)c1
mass density [kg/m3]
Conditions | 298.15 K | 328.15 K
x2 = 0 | 1023.13 | 996.99
x2 = 0.09015 | 1006.63 | 980.65
x2 = 0.185 | 989.75 | 963.9
x2 = 0.2674 | 975.43 | 949.71
x2 = 0.358 | 960.07 | 934.46
x2 = 0.4569 | 943.72 | 918.28
x2 = 0.5358 | 930.98 | 905.65
x2 = 0.6409 | 914.41 | 889.25
x2 = 0.7322 | 900.4 | 875.38
x2 = 0.836 | 884.84 | 860
x2 = 0.8961 | 876.03 | 851.31

c1ccccc1 [benzene] + CC(=O)c1ccccc1
x1 = 1
Conditions | mass density [kg/m3]
298.15 K | 873.64
328.15 K | 841.51

Cc1ccccc1 [toluene] + CC(=O)c1ccccc1
x1 = 1
Conditions | mass density [kg/m3]
298.15 K | 862.27
328.15 K | 834.26

Cc1cc(C)cc(C)c1 [1,3,5-trimethylbenzene] + CC(=O)c1ccccc1
x1 = 1
Conditions | mass density [kg/m3]
298.15 K | 861.13
328.15 K | 836.63
